Source: patent publication US12466781B2, “Thyromimetics” (Autobahn Therapeutics, Inc., priority 2019, dated 2025)

How the values were obtained:
[1] = Tissue distribution studies (tissue concentrations by LC-MS/MS); format: in vivo, male C57Bl/6 mice; settings: for AUC(4-hr) Heart / AUC(4-hr) Liver: mice, targeted dose 0.100 mg/kg; for brain levels of parent acid Compound 15: PO dosing (0.1 mg/kg) of the amide prodrug, compared to dosing Compound 15 itself, FIG. 1
Description: For tissue concentration studies in male C57Bl/6 mice, test compounds are formulated as NMP/solutol/PBS solution, at a concentration of 0.05 mg/mL and dosed at 2 mL/kg with the targeted dose of 0.100 mg/kg via SC injection or oral dosing. […] The pharmacokinetic parameters are determined by non-compartmental methods using WinNonlin. Area under the drug curves (AUC) values are determined by trapezoidal approximation; tissue-to-tissue ratios are determined by comparing AUC values.

TRβ = molecular target: T1, TRβ (Homo sapiens, UniProt P10828); experiment: Thyroid-hormone reporter-gene assay (TRβ-Gal4 hybrid, luciferase, HEK293); format: cell-based; settings: Table 2
T1 construct: expressed in transfected cells; host or cells: HEK293
T1 sequence (P10828 217-461 limits assumed): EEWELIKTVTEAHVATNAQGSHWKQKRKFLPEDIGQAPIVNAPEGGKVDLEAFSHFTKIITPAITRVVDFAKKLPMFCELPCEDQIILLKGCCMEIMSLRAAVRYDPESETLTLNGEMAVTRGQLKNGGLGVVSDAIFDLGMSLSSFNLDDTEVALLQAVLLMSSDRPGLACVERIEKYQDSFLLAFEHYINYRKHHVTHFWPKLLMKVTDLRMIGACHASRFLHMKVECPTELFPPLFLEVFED
Description: (§1) Compounds were tested for thyroid-hormone receptor activity using TR reporter-gene assays. Reporter cells used in the assays express a TR-receptor hybrid (either TRα or TRβ) in which the native N-terminal DNA binding domain (DBD) has been replaced with that of the yeast Gal4 DBD. The reporter gene, firefly luciferase, is functionally linked to the Gal4 upstream activation sequence (UAS). Both cell lines were derived from human embryonic kidney (HEK293).
(§2) Step 1: A suspension of reporter cells was prepared in cell recovery medium containing 10% charcoal-stripped FBS, and dispensed into assay plates. The plates were pre-incubated for 6 hours in a cell culture incubator (37° C./5% CO2/85% humidity).
(§3) These intermediate stocks were subsequently diluted directly into compound screening medium containing 10% charcoal-stripped FBS to generate “2×-concentration” treatment media (containing 0.2, 0.4 or 0.8% DMSO).
(§4) Step 3: At the end of the pre-incubation period, culture media were discarded from the assay plates, and all wells received 100 μl of compound screening medium. 100 μl of each of the previously prepared “2×-concentration” treatment media were dispensed into duplicate assay wells, thereby achieving the desired final treatment concentrations. The final concentration of DMSO in all assay wells was 0.1, 0.2 or 0.4%. Assay plates were incubated for 24 hr in a cell culture incubator (37° C./5% CO2/85% humidity).
(§5) Step 4: At the 24 h assay endpoint, treatment media were discarded and 100 μl/well of luciferase detection reagent was added. Relative luminometer units (RLUs) were quantified from each assay well.

TRα = molecular target: T2, TRα (Homo sapiens, UniProt P10827); experiment: Thyroid-hormone reporter-gene assay (TRα-Gal4 hybrid, luciferase, HEK293); format: cell-based; settings: reporter cells, 24 hr incubation; Table 2; read-out: TRα (EC50)
T2 construct: expressed in transfected cells; host or cells: HEK293
T2 sequence (P10827 163-410 isoform P10827-2 limits assumed): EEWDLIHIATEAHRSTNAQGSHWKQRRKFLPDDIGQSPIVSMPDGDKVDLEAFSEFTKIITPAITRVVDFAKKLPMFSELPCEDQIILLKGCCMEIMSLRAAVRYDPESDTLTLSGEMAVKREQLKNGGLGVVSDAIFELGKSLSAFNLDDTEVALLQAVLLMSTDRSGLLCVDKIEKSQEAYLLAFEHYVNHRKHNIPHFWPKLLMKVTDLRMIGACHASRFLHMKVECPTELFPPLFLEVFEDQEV
Description: as §1, §2, §3, §4, §5

AUC(4-hr) Heart [1] | AUC(4-hr) Liver [1] | Structure (SMILES) | brain levels of parent acid Compound 15 [1] | also measured
25.8 ng-hr/g of tissue | 580 ng-hr/g of tissue | CC(C)c1c(O)ccc(Cc2c(Cl)cc(OCC(=O)O)cc2Cl)c1F [Compound 15, 2-(3,5-dichloro-4-(2-fluoro-4-hydroxy-3-isopropylbenzyl)phenoxy)acetic acid] |  | 
 |  | CNC(=O)COc1cc(Cl)c(Cc2ccc(O)c(C(C)C)c2F)c(Cl)c1 [Compound 16, 2-(3,5-dichloro-4-(2-fluoro-4-hydroxy-3-isopropylbenzyl)phenoxy)-N-methylacetamide] | dramatic increase in brain concentration of the parent acid | 
24.4 ng-hr/g of tissue | 550 ng-hr/g of tissue | CC(C)c1cc(Cc2c(Cl)cc(OCC(=O)O)c(F)c2Cl)ccc1O [Compound 62, 2-(3,5-dichloro-2-fluoro-4-(4-hydroxy-3-isopropylbenzyl)phenoxy)acetic acid] |  | 
 |  | CC(C)c1c(O)ccc(Cc2c(Cl)cc(OCC(=O)N(C)C)cc2Cl)c1F [Compound 17, 2-(3,5-dichloro-4-(2-fluoro-4-hydroxy-3-isopropylbenzyl)phenoxy)-N,N-dimethylacetamide] | increase in the brain concentration of the parent acid | 
 |  | CON(C)C(=O)COc1cc(Cl)c(Cc2ccc(O)c(C(C)C)c2F)c(Cl)c1 [Compound 22, 2-(3,5-dichloro-4-(2-fluoro-4-hydroxy-3-isopropylbenzyl)phenoxy)-N-methoxy-N-methylacetamide] |  | T3-SI (selectivity index) (TRβ; calculated as EC50 (TRα)/EC50 (TRβ)): ++ (3×<T3-SI≤30×); EC50 (TRβ; reporter cells, 24 hr incubation, read-out: TRβ (EC50)): 10 to 100 nM; EC50 (TRα): 10 to 100 nM
